Source: patent US20150072943A1, “MIXTURE OF POLAR G[…] USE IN THE TREATMENT OF PAIN AND COPD” (SANOFI, priority 2012, published 2015)

Columns and labels:
[1] = test system: release of TNFalpha induced by E Coli LPS in mouse bronchus parenchyma tissue culture; test: LPS-induced TNFalpha release in mouse bronchus parenchyma tissue culture; type: cell-based
Procedure: The animals (BALB/c male mice, 20-22 g body weight) were sacrificed by cervical dislocation. The thoracic cage was opened cutting the ribs. Clamping the heart with surgical tweezers, lungs and heart were dissected from the thoracic cavity using surgical scissors and putted in cold Krebs solution ([…]: NaCl 118.4, KCl 4.7, CaCl2 2.5, KH2PO4 1.2, NaHCO3 25, glucose 11.7). Large airways and visible blood vessels were dissected. The lungs were divided in fragments of 30 mg (˜5 pieces/mouse) and finely chopped (six pieces of ˜2 mm3 each fragment) using a scalpel. Six explants (total weight 30 mg) were incubated per well (2.0 cm2) of a 24 well plate with 1 ml of RPMI-1640 medium (RPMI-1640+antibiotic antimycotic solution 100x, Sigma-Aldrich) at 37° C. in 5% carbon dioxide/air for 16 hours. Then the medium was replaced with fresh medium and the tissue was treated for 1 hour with compound. After one hour, the tissue was stimulated with 100 ng/ml LPS E. Coli 055:B5 (Sigma-Aldrich). 4 hour after LPS stimulation, supernatant was harvested and stored at −80° C. until ELISA analysis. Three of six tissue explants were fixed in 10% formalin buffer for histological/immunohistochemical analysis. The other three tissue explants were put in RNA-later buffer overnight and then stored at −80° C. […]

[2] = test system: release of TNFalpha induced by E. Coli-LPS in human bronchus parenchyma tissue culture; test: LPS-induced TNFalpha release in human bronchus parenchyma tissue culture; type: cell-based
Description: Human parenchymal lung tissue was obtained from patients undergoing resection for carcinoma at San Gerardo Hospital, Monza, Italy. Patients had not received radiotherapy or chronic treatment with steroids, opioids or chemotherapy. All specimens of parenchymal tissue were obtained from sites distant from the tumour. The study was approved by the institutional ethics committee of San Gerardo hospital Monza Italy and all volunteers gave informed consent. Resected lung tissue was dissected free of tumour, large airways, pleura and visible blood vessels and finely chopped using dissecting scissors, into 2 mm fragments during several washes with Kreb's buffer (([…]: NaCl 118.4, KCl 4.7, CaCl2 2.5, KH2PO4 1.2, NaHCO3 25, glucose 11.7). Six explants (total weight approx. 30 mg) were incubated in culture bioreactor (Synthecon/NASA USA) with RPMI-1640 medium containing 1% penicillin, 1% streptomycin, and 1% gentamycin at 37° C. in 5% carbon dioxide/air for 16 hours. Tissue was then either stimulated with 100 ng/ml LPS (Sigma-Aldrich) or maintained in cell culture media alone for 4 hours. For neutralization of TNF, tissue was incubated with 0.01, 0.1, or 1 μM of VB3323 for 1 hr prior to stimulation with 100 ng/ml LPS. […] The levels of TNFalpha in the supernatant were measured by enzyme-linked immunosorbent assay (ELISA) and the concentration corrected for tissue weight. […]

For `C[C@@H]1C[C@H]2[C@@H]3CCC4=CC(=O)C=C[C@]4(C)[C@@]3(F)[C@@H](O)C[C@]2(C)[C@@]1(O)C(=O)CO` [Dexamethasone], the inhibition at 1 µM [1] was 67% and the inhibition at 1 µM [2] was 69%.
